The values below come from PMC5510229, “BCAT1 controls metabolic reprogramming in activated human macrophages and is associated with inflammatory diseases” (Nature Communications, 2017).

This assay relates to collagen-induced arthritis (CIA). Kind of assay: Collagen-induced arthritis (CIA) in mice. Type of assay: in vivo, DBA/1 mice. An excerpt: Figure 5 Orally administrated ERG240 reduced the severity of crescentic glomerulonephritis in rats and CIA in mice. (a) Glomerular crescents, serum creatinine, and proteinuria levels measured in vehicle and ERG240 treated rats at day 10 following induction of nephrotoxic nephritis. At least n=4 rats were used in each group. (b) Col1a1 immunofluorescence (IF) quantification (left panel), representative IF and Sirius red staining images (middle panel) and Col1a1 qRT-PCR (normalized to Hprt) 28 days following NTS injection. Original magnification, × 20, at least n=4 animals were used in each group. (c) Clinical progression of CIA measured by the Mean Arthritis Index in vehicle and ERG240-treated animals in both studies (prophylactic and therapeutic, upper panel; at least n=6 animals per group). Histological analysis of joints from representative whole paws scored for inflammation, pannus formation, cartilage damage and bone resorption (lower panel). Error bars are s.e.m. Either Mann–Whitney or Student’s t-test were used for significance. *** P<0.001, ** P<0.01, * P<0.05. Scale bars, 50 μm.
DBA/1 mice (6–8 weeks old from Harlan Sprague Dawley Inc.) were injected s.c. with 100 μg of bovine type II collagen emulsified in complete Freund’s adjuvant (Sigma). At day 21 following primary immunization, the mice were given a booster injection of 100 μg of bovine type II collagen emulsified in incomplete Freund’s adjuvant. The prophylactic arm of the study involved water-treated (vehicle control, n=6) and ERG240-treated (720 mg kg^−1, o.p., qdx5, 3 weeks, n=10) animals, while the therapeutic arm of the study involved water-treated (vehicle control, n=10) and ERG240-treated (1,000 mg kg^−1, o.p., qdx5, 4 weeks, n=10) animals. Parafin-embedded paws were sectioned at ∼5 μm. One slide from each paw was stained with hematoxylin and eosin (H&E) and served as a reference, while four additional slides were stained using antibodies against F4/80 (AbD Serotec). The expression of the above markers in the joints of the preserved CIA tissues was scored according to the following scale: 0=no staining; 1=minimal; 2=mild; 3=moderate; 4=marked; and 5=diffuse and severe staining (see Supplementary Methods for detailed histological evaluation of CIA tissues). Serum levels of TNF and RANKL were analysed using relevant ELISA kits from Biolegend (TNF-α) and Abcam (RANKL) according to the manufacturers’ instructions. Details for determining the presence of antibodies against type II collagen are provided in Supplementary Methods.
Clinical and histological evaluation methods in CIA
Development of arthritis was assessed ever y other da y and scored on a scale of 0-4 as follows: 0=no oedema or swelling, 1=slight oedema and er ythema restricted to the foot or ankle, 2=moderate to severe oedema and er ythema restricted to the foot or ankle, 3 =oedem a and erythema of the entire paw, and 4=maximum inflamed limb i nvolving multiple joints.
The maximal arthritic score or arthritic index (AI) per animal was 16 (cumulative for 4 limbs).Paw thickness was measured before termination of the experiment . […]
Histological evaluation of CIA t issues.
Dosing of the animals in the proph ylactic groups started on the da y of the booster injection (day 21), while dosing of the animals in the therapeutic groups started after arthritis was established (da y 26). Animals were scored for the presence of arthritis ever y other da y and weighed once a week. At the end of the study, sera were obtained b y cardiac puncture and paws were excised for histological examination (HistoTox Labs Inc). From each therap eutic group, three front and four hind paws were selected for histological an al ys is . Paws were fixed in 4% formalin and decalcified in formic acid. Parafin sections (8 µm) were stained with toluidine blue (T-blue). The sections were evaluated blindly and scored for inflammation, pannus infiltration, cartilage damage, and bone erosion according to scale shown here. […]

The mark [1] stands for this setting: excised paws after completion of CIA.

Consider `CC(=O)C(C)CCC(=O)O` (stereo not drawn) [ERG240], for which, where the note is “CIA mice, ELISA”, the “serum Tnf levels” value is listed as “diminished levels” and the “serum Tnfsf11 (RANKL) levels” value was “diminished levels”. Under setting [1], the “decrease of bone erosion (paw histology)” value turned out to be 86%, the “decrease of cartilage degradation (paw histology)” value was determined as 74%, the “decrease of inflammation (paw histology)” value was determined as 53% and the “decrease of pannus formation (paw histology)” value came out at 86%. Moreover, the “F4/80+ macrophages in the joints” value (immunohistochemistry of excised paws) is “significant reduction”. The joint oedema entry (only in the fore paws, therapeutic study) was “significant decrease”. Also, the “severity of CIA (Mean Arthritis Index)” value (oral, prophylactic 720 mg kg^−1, therapeutic 1000 mg kg^−1) is “alleviates the severity of CIA”.
